Data as given in article PMC6479814, “Structure-Based Design of Novel Benzimidazole Derivatives as Pin1 Inhibitors” (Molecules, 2019).

Tests used:
[1] = target: T1, Pin1 (Homo sapiens, UniProt Q13526); test: Pin1 inhibition, protease-coupled assay; assay type: biochemical; details: 10 °C; for inhibition at 10 µM: Pin1, compound at 10 μM; for IC50: Pin1, protease-coupled assay
T1 construct: purchased Sino Biological Inc., Beijing, China
Method: To investigate the Pin1 inhibitory potency of all synthesized compounds, the inhibition ratio at 10 μM or IC50 of all synthesized compounds was determined using protease-coupled assay.
Pin1 inhibitory activities were measured at 10 °C by protease-coupled assay as reported previous. Suc-Ala-Glu-cis-Pro-Phe-4-nitroaniline (Bachem, Bubendorf, Switzerland) in 0.47 mol/L, LiCl/trifluoroethanol was used as the substrate. The assay buffer (860 μL of 35 mM HERES at pH 7.8), Pin1 (20 μL, Bought from Sino Biological Inc., Beijing, China) and target compounds (10 μL of varying comcentrations in DMSO) were pre-equilibtated in the cuvette at 10 °C for 30 min. Then, 150 uL of ice-cooled chymotrypsin (60 mg/mL in 0.001 M/HCl) was added and mixed immediately. Additional substrate (40 μL) was added to start the assay and the reaction was monitored by absorbance at 390 nm for 90 s. For each compound, four concentrations (10 μM, 3.3 μM, 1.1 μM, 0.37 μM) were chosen, and the assay was performed in duplicate. The data was analyzed by Graphpad Prism 6.0.

[2] = test system: PC-3 cells; test: In vitro anti-proliferative MTT assay; assay type: cell-based, human; details: for GI50: Homo sapiens, PC-3 cells, MTT, 96 h; for antiproliferative activity against human prostate cancer PC-3 cells: result in words
Method: As for Pin1 was overexpressed in human prostate cancer cells, the antiproliferative activity of these benzimidazole derivatives against PC-3 cells were further evaluated by MTT assay. Meanwhile, the polar surface area (PSA) of these compounds was calculated under the optimal conformation since PSA is the key indicator of membrane permeability.
The tested cells were plated in 96-well microtiter plates with a density of 2,000 cells/well and incubated in a humidified atmosphere with 5% CO2 at 37 °C for 24 h. The cells were then exposed to tested compounds of different concentrations in triplicate. After incubated for 96 h, 50 μL of 3-(4,5-dimethylthiazol-2-yl)-2,5-diphenyltetrazolium bromide (MTT) solution (2 mg/mL) was added to each well and incubated for an additional 4 h. Then the suspernatant was discarded and the fromazan was dissolved in 200 μL of dimethyl sulfoxide (DMSO). The plate was oscillated subtly at room temperature for 10 min before the absorbance was measured at 570 nm by a microplate reader. Cell inhibitory ratio was calculated with the following formula:Inhibitory Rate (%) = [(Acontrol − Atreated)/Acontrol] × 100%(1)
The GI50 was determined as the concentration that caused half inhibition of cell proliferation. All experiments were performed three times independently, and the results were reported presented as the mean.

T1 sequence (Q13526 whole entry): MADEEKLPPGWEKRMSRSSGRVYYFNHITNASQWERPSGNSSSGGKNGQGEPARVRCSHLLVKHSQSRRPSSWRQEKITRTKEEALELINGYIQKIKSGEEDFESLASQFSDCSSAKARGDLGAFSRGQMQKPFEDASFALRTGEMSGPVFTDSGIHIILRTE

| SMILES | inhibition at 10 µM [1] [%] | GI50 [2] [µM] | melting point [°C] | IC50 [1] [µM] | antiproliferative activity against human prostate cancer PC-3 cells [2] |
| --- | --- | --- | --- | --- | --- |
| O=C(O)/C=C/c1nc2ccccc2n1CCC(=O)N1CCCCC1 [Compound 6a, (E)-3-(1-(3-oxo-3-(piperidin-1-yl)propyl)-1H-benzo[d]imidazol-2-yl)acrylic acid] | 28 | > 50 | 128 to 130 |  |  |
| O=C(O)/C=C/c1nc2ccccc2n1CCC(=O)N1CCOCC1 [Compound 6b, (E)-3-(1-(3-Morpholino-3-oxopropyl)-1H-benzo[d]imidazol-2-yl) acrylic acid] | 27 | > 50 | 207 to 209 |  |  |
| O=C(O)/C=C/c1nc2ccccc2n1CCC(=O)Nc1ccccc1 [Compound 6c, (E)-3-(1-(3-Oxo-3-(phenylamino)propyl)-1H-benzo[d]imidazol-2-yl)acrylic acid] | 46 | > 50 | 228 to 230 |  |  |
| Cc1ccc(NC(=O)CCn2c(/C=C/C(=O)O)nc3ccccc32)cc1 [Compound 6d, (E)-3-(1-(3-Oxo-3-(p-tolylamino)propyl)-1H-benzo[d]imidazol-2-yl)acrylic acid] | 75 | 17.4 | 221 to 222 | 1.65 | moderate antiproliferative activity |
| COc1ccc(NC(=O)CCn2c(/C=C/C(=O)O)nc3ccccc32)cc1 [Compound 6e, (E)-3-(1-(3-((4-Methoxyphenyl)amino)-3-oxopropyl)-1H-benzo[d]imidazol-2-yl)acrylic acid] | 48 | > 50 | 215 to 217 |  |  |
| O=C(O)/C=C/c1nc2ccccc2n1CCC(=O)Nc1ccc(Cl)cc1 [Compound 6f, (E)-3-(1-(3-((4-Chlorophenyl)amino)-3-oxopropyl)-1H-benzo[d]imidazol-2-yl)acrylic acid] | 54 | > 50 | 158 to 160 |  |  |
| O=C(O)/C=C/c1nc2ccccc2n1CCC(=O)Nc1ccc(Br)cc1 [Compound 6g, (E)-3-(1-(3-((4-Bromophenyl)amino)-3-oxopropyl)-1H-benzo[d]imidazol-2-yl)acrylic acid] | 66 | 14.1 | 192 to 194 | 1.73 | moderate antiproliferative activity |
| O=C(O)/C=C/c1nc2ccccc2n1CCC(=O)Nc1cccc(Br)c1 [Compound 6h, (E)-3-(1-(3-((3-Bromophenyl)amino)-3-oxopropyl)-1H-benzo[d]imidazol-2-yl)acrylic acid] | 90 | 9.89 | 209 to 210 | 0.64 | moderate antiproliferative activity |
| COc1cc(NC(=O)CCn2c(/C=C/C(=O)O)nc3ccccc32)cc(OC)c1 [Compound 6i, (E)-3-(1-(3-((3,5-dimethoxyphenyl)amino)-3-oxopropyl)-1H-benzo[d]imidazol-2-yl)acrylic acid] | 60 | > 50 | 203 to 204 |  |  |
| O=C(O)/C=C/c1nc2ccccc2n1CCC(=O)NCc1ccc(Br)cc1 [Compound 6j, (E)-3-(1-(3-((4-Bromobenzyl)amino)-3-oxopropyl)-1H-benzo[d]imidazol-2-yl)acrylic acid] | 59 | > 50 | 210 to 212 |  |  |
| O=C(O)/C=C/c1nc2ccccc2n1CCC(=O)NCCc1ccc(Br)cc1 [Compound 6k, (E)-3-(1-(3-((4-Bromophenethyl)amino)-3-oxopropyl)-1H-benzo[d]imidazol-2-yl)acrylic acid] | 62 | > 50 | 203 to 205 |  |  |
| COc1ccc(CNC(=O)CCn2c(/C=C/C(=O)O)nc3ccccc32)cc1 [Compound 6l, (E)-3-(1-(3-((4-Methoxybenzyl)amino)-3-oxopropyl)-1H-benzo[d]imidazol-2-yl)acrylic acid] | 42 | > 50 | 203 to 205 |  |  |
| COc1ccc(CCNC(=O)CCn2c(/C=C/C(=O)O)nc3ccccc32)cc1 [Compound 6m, (E)-3-(1-(3-((4-Methoxyphenethyl)amino)-3-oxopropyl)-1H-benzo[d]imidazol-2-yl)acrylic acid] | 49 | > 50 | 219 to 220 |  |  |
| O=C(O)/C=C/c1nc2ccccc2n1CCC(=O)Nc1cc(Cl)cc(Cl)c1 [Compound 6n, (E)-3-(1-(3-((3,5-Dichlorophenyl)amino)-3-oxopropyl)-1H-benzo[d]imidazol-2-yl)acrylic acid] | 71 | 20.3 | 152 to 154 | 1.87 | moderate antiproliferative activity |
| Cc1cc(C)c(NC(=O)CCn2c(/C=C/C(=O)O)nc3ccccc32)c(C)c1 [Compound 6o, (E)-3-(1-(3-((2,4,6-Trimethylphenyl)amino)-3-oxopropyl)-1H-benzo[d]imidazol-2-yl)acrylic acid] | 84 | 11.1 | 275 to 278 | 0.97 | moderate antiproliferative activity |
| O=C1C=CC(=O)c2c(O)cccc21 [Juglone, reference compound] |  | 4.89 |  | 10 |  |

The next lines start with results.

| inhibition at 10 µM [1] [%] | GI50 [2] [µM] | melting point [°C] | IC50 [1] [µM] | SMILES | antiproliferative activity against human prostate cancer PC-3 cells [2] |
| --- | --- | --- | --- | --- | --- |
| 60 | > 50 | 66 to 68 |  | Cc1ccc(NC(=O)CCn2c(CCC(=O)O)nc3ccccc32)cc1 [Compound 7a, 3-(1-(3-Oxo-3-(p-tolylamino)propyl)-1H-benzo[d]imidazol-2-yl)propanoic acid] |  |
| 31 | > 50 | 66 to 68 |  | O=C(O)CCc1nc2ccccc2n1CCC(=O)Nc1ccc(Cl)cc1 [Compound 7b, 3-(1-(3-((4-Chlorophenyl)amino)-3-oxopropyl)-1H-benzo[d]imidazol-2-yl)propanoic acid] |  |
| 60 | 28.6 | 222 to 224 |  | Cc1cc(C)c(NC(=O)CCn2c(CCC(=O)O)nc3ccccc32)c(C)c1 [Compound 7c, 3-(1-(3-(Mesitylamino)-3-oxopropyl)-1H-benzo[d]imidazol-2-yl)propanoic acid] | moderate antiproliferative activity |
| 73 | > 50 | 226 to 228 |  | O=C(CCn1c(-c2nc(C(=O)O)cs2)nc2ccccc21)Nc1ccccc1 [Compound 13a, 2-(1-(3-Oxo-3-(phenylamino)propyl)-1H-benzo[d]imidazol-2-yl)thiazole-4-carboxylic acid] |  |
| 87 | > 50 | 210 to 212 | 0.89 | O=C(CCn1c(-c2nc(C(=O)O)cs2)nc2ccccc21)Nc1cccc(Br)c1 [Compound 13b, 2-(1-(3-((3-Bromophenyl)amino)-3-oxopropyl)-1H-benzo[d]imidazol-2-yl)thiazole-4-carboxylic acid] |  |
| 79 | > 50 | 186 to 188 |  | O=C(CCn1c(-c2nc(C(=O)O)cs2)nc2ccccc21)Nc1ccccc1Br [Compound 13c, 2-(1-(3-((2-Bbromophenyl)amino)-3-oxopropyl)-1H-benzo[d]imidazol-2-yl)thiazole-4-carboxylic acid] |  |
